Assay results published in BigSolDB 2.1.

Nc1ncnc2c1ncn2CCOCP(=O)(O)O
solubility (mole fraction)
Settings	278.15 K	283.15 K	288.15 K	293.15 K	298.15 K	303.15 K	308.15 K	313.15 K	318.15 K	323.15 K
in DMF	0.000121	0.000203	0.000318	0.000491	0.000762	0.00115	0.00172	0.00254	0.00368	0.0053
in acetone	0.000103	0.000114	0.000145	0.00018	0.000231	0.000286	0.000359	0.000435	0.000531	0.00065
in ethanol	7.5e-05	9.4e-05	0.00012	0.000154	0.000191	0.000237	0.000291	0.000342	0.000438	0.000541
in isobutanol	0.000183	0.000211	0.000252	0.000296	0.000365	0.000433	0.000505	0.000597	0.00069	0.00081
in methanol	0.000352	0.000395	0.000455	0.000523	0.0006	0.000704	0.000805	0.000915	0.00105	0.00122
in n-heptane	0.000127	0.000139	0.000175	0.000217	0.000269	0.000325	0.000394	0.000473	0.00057	0.000679
in n-propanol	0.000217	0.000235	0.000279	0.000343	0.000409	0.000485	0.00058	0.000681	0.0008	0.00093
in toluene	5.7e-05	6.5e-05	8.7e-05	0.000115	0.000144	0.000185	0.000239	0.000295	0.000373	0.000464
